Test system: tobacco budworm (Heliothis virescens [Fabricius])
Settings: 0.25 millimolar on the surface of the diet, second instar larvae, five-day exposure; for Percent Mortality: compared to total number of insects infested; for Percent Growth Inhibition: inhibition of insect weight relative to untreated controls
Protocol: Candidate insecticides were evaluated for activity against the tobacco budworm (Heliothis virescens [Fabricius]) in a surface-treated diet test.
In this test one mL of molten (65-70° C.) wheat germ-based artificial diet was pipetted into each well of a four by six (24 well) multi-well plate (ID#430345-15.5 mm dia.×17.6 mm deep; Corning Costar Corp., One Alewife Center, Cambridge, Mass. 02140). The diet was allowed to cool to ambient temperature before treatment with candidate insecticide.
The robot subsequently pipetted 40 microliters of the so-prepared solution onto the surface of the diet in each of three wells in the 24 multi-well plate. The process was repeated with solutions of seven other candidate insecticides. […] Appropriate untreated controls containing only DMSO on the diet surface were also included in this test.
For evaluations of the insecticidal activity of a candidate insecticide at varying rates of application, the test was established as described above using sub-multiples of the standard 50 millimolar DMSO solution of candidate insecticide. […] In these evaluations there were six replicates of each rate of application placed on the surface of the diet in the 24 multi-well plate, for a total of four rates of application of candidate insecticide in each plate.
In each well of the test plate was placed one second instar tobacco budworm larvae, each weighing approximately five milligrams. After the larvae were placed in each well, the plate was sealed with clear polyfilm adhesive tape. The tape over each well was perforated to ensure an adequate air supply. The plates were then held in a growth chamber at 25° C. and 60% relative humidity for five days (light 14 hours/day).
After the five-day exposure period insecticidal activity for each rate of application of candidate insecticide was assessed as percent inhibition of insect weight relative to the weight of insects from untreated controls, and percent mortality when compared to the total number of insects infested.

Row | Molecule | Percent Mortality | Percent Growth Inhibition
1 | 2-{2-[3,4-dichlorophenyl)piperazinyl]ethoxy}-5-(3,3-dichloroprop-2-enyloxy)-1,3-dichlorobenzene [Compound 20] | 100% | 100%
2 | O=S(=O)(c1ccc(C(F)(F)F)cc1)N1CCN(c2c(Cl)cc(OCC=C(Cl)Cl)cc2Cl)CC1 [Compound 26, 5-(3,3-dichloroprop-2-enyloxy)-1,3-dichloro-2-{4-[4-(trifluoromethyl)phenylsulfonyl]piperazinyl}benzene] | 100% | 100%
3 | OC1(c2ccc(Cl)cc2)CCN(CCOc2c(Cl)cc(OCC=C(Cl)Cl)cc2Cl)CC1 [Compound 35, 1-{2-[4-(3,3-dichloroprop-2-enyloxy)-2,6-dichlorophenoxy]ethyl}-4-(4-chlorophenyl)piperidin-4-ol] | 100% | 100%
4 | tert-butyl 4-{[4-(3,3-dichloroprop-2-enyloxy)-2,6-dichlorophenoxy]methyl}piperidinecarboxylate [Compound 4] | 100% | 100%
